The target in data set [1] is Voltage-gated inwardly rectifying potassium channel KCNH2 (Homo sapiens, UniProt Q12809, F656M). As to the kind of experiment: Inhibition of human recombinant ERG F656M mutant expressed in CHOK1 cells by whole-cell plate-based electrophysiology. The note with it: cho-k1.
Data set [2] has as its target Voltage-gated inwardly rectifying potassium channel KCNH2 (Homo sapiens, UniProt Q12809, F656T). As to the kind of experiment: Inhibition of human recombinant ERG F656T mutant expressed in CHOK1 cells by whole-cell plate-based electrophysiology. Conditions: cho-k1.
The target of data set [3] is C-C chemokine receptor type 8 (Homo sapiens, UniProt P51685). As to the kind of experiment: Antagonist activity at human CCR8. The data set is classed as functional.
Sequence of C-C chemokine receptor type 8 (P51685 whole entry): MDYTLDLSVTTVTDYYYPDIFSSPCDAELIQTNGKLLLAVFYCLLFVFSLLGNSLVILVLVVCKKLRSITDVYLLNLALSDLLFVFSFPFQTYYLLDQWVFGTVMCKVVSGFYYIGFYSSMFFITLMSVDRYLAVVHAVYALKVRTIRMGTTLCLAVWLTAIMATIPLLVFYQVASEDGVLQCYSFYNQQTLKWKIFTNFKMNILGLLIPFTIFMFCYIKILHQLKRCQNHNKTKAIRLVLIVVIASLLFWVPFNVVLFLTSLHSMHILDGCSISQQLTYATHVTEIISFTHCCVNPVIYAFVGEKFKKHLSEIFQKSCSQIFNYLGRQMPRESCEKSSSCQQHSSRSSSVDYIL
Data set [4] deals with Voltage-gated inwardly rectifying potassium channel KCNH2 (Homo sapiens, UniProt Q12809, S624A). As to the kind of experiment: Inhibition of human recombinant ERG S624A mutant expressed in CHOK1 cells by whole-cell plate-based electrophysiology. Conditions: cho-k1.
For data set [5], the target named is T1, Voltage-gated inwardly rectifying potassium channel KCNH2 (Homo sapiens, UniProt Q12809). As to the kind of experiment: Displacement of [3H]dofetilide from human recombinant ERG expressed in HEK293 cells by patch clamp method. A general note: Displacement assays read how much labelled ligand stays bound in the presence of the test substance.
For data set [6], the target named is Voltage-gated inwardly rectifying potassium channel KCNH2 (Homo sapiens, UniProt Q12809, T623S). As to the kind of experiment: Inhibition of human recombinant ERG T623S mutant expressed in CHOK1 cells by whole-cell plate-based electrophysiology. The note with it: cho-k1.
The nature of data set [7]: Apparent n-Octanol-water partition coefficient, log D at pH 7.4 by HPLC analysis.
Data set [8] deals with Voltage-gated inwardly rectifying potassium channel KCNH2 (Homo sapiens, UniProt Q12809, F656W). Nature of the data set: Inhibition of human recombinant ERG F656W mutant expressed in CHOK1 cells by whole-cell plate-based electrophysiology. Conditions: cho-k1.
Data set [9] has as its target T1, Voltage-gated inwardly rectifying potassium channel KCNH2. Nature of the data set: Inhibition of wild type human ERG expressed in CHOK1 cells by whole-cell plate-based electrophysiology.
The target of data set [10] is Voltage-gated inwardly rectifying potassium channel KCNH2 (Homo sapiens, UniProt Q12809, Y652A). As to the kind of experiment: Inhibition of human recombinant ERG Y652A mutant expressed in CHOK1 cells by whole-cell plate-based electrophysiology. The note with it: cho-k1.
For data set [11], the target named is Voltage-gated inwardly rectifying potassium channel KCNH2 (Homo sapiens, UniProt Q12809, S624T). Nature of the data set: Inhibition of human recombinant ERG S624T mutant expressed in CHOK1 cells by whole-cell plate-based electrophysiology. The note with it: cho-k1.
Data set [12] deals with Voltage-gated inwardly rectifying potassium channel KCNH2 (Homo sapiens, UniProt Q12809, Y652F). As to the kind of experiment: Inhibition of human recombinant ERG Y652F mutant expressed in CHOK1 cells by whole-cell plate-based electrophysiology. The note with it: cho-k1.

A word on the IC50: it is the point on the concentration scale where inhibition reaches its midpoint. Usually logD stands for the decadic logarithm of the distribution of all forms, ionised or not, between an organic phase and buffer at a given pH. Take `CC1(C)Cc2c(CN3CCC4(CC3)CCN(C(=O)c3ccc(N)cn3)CC4)cccc2O1`: the “delta pIC50 wt-mutant” value in data set [1] is reported as -0.22; in [2], 0.2; in data set [4] it was 0.79; in [6], 0.49; in data set [8] it was -0.66; in data set [10], 1.23. Besides, the “delta pIC50 wt-mutant” value in [11] was determined as 0.31; in [12] it was 0.68. For the same compound, the IC50 in data set [3] is 0.00813 µM; in data set [5], 12.9 µM; in data set [9] it was 16.6 µM. The logD in data set [7] was 1.3.

On to `CC1(C)Oc2c(CN3CCC4(CC3)CCN(C(=O)c3ccc(N)cn3)CC4)cccc2C1(F)F`, for which the “delta pIC50 wt-mutant” value in data set [1] is -0.49; in data set [2], -0.17; in [4] it was 0.36; in data set [6], 0.01; in [8], -1.07; in [10], 0.87. Also, the “delta pIC50 wt-mutant” value is recorded as -0.62 in data set [11] and 0.02 in data set [12]. Also, the figures for the IC50 in [3], in data set [5] and in [9] were 0.00263 µM, 47.9 µM and 30.9 µM, respectively. In data set [7], the logD was found to be 2.3.

Source of the values: ChEMBL document CHEMBL1154736, “Increasing selectivity of CC chemokine receptor 8 antagonists by engineering nondesolvation related interactions with the intended and off-target binding sites” (J Med Chem, 2009).
